Measured values published in US8734869B2, “Synergistic pest-control compositions” (TyraTech, Inc., priority 2007, dated 2014).

Columns and labels:
male German Cockroach = experiment: Time to kill: five microliters applied to the sternum, time to death recorded (stopped at one hour); format: in vivo; conditions: five microliters on sternum
Procedure: Five microliters of the oil or oil blend listed in the table below were applied to the sternum of a male German Cockroach, and the time to death was recorded (time keeping was stopped at one hour). Sample size N=60 for Blend 24 and N=40 for each of the oil components. Components were diluted with acetone. Five microliters of the oil or oil blend listed in the table below were applied to the sternum of a male German Cockroach, and the time to death was recorded (time keeping was stopped at one hour). Sample size N=60 for Blend 41 and each of the oil components. Components were diluted with acetone. Five microliters of the oil or oil blend listed in the table below were applied to the sternum of a male German Cockroach, and the time to death was recorded (time keeping was stopped at one hour). Sample size N=40 for Blend 41 and each of the oil components. Components were diluted with acetone.

[1] = tested on: olfactory receptor activation in Drosophila S2 cells; experiment: Ca2+ release triggered by olfactory receptor activation in Drosophila S2 cells; format: cell-based
Source text: In embodiments of the present invention, a Drosophila Schneider 2 (S2) cell line is stably transfected with a G protein-coupled receptor that is amplified from Drosophila melanogaster head cDNA phage library. The cell line can be used to screen potential active ingredients, as described below.
The potential for insect control activity can be identified by measuring the affinity of the test compositions for the receptor in the cell lines expressing a TyrR, Or83b, and/or Or43a. The potential for insect control activity can also be identified by measuring the change in intracellular cAMP and/or Ca2+ in the cell lines expressing TyrR, Or83b, and/or Or43a following treatment with the test compositions. The gene sequences of the TyrR, the Or 83b receptor and the Or 43a receptor have substantial similarity between various insect species. As such, the Drosophila Schneider cell lines expressing these receptors can be used to screen for compositions having insect control activity in various insect species.
A blend can is prepared and combined with a synthetic pyrethroid such as delatmetrhin. For example, Blend 41 was combined with deltamethrin (DM) and the efficacy of Blend 41 and DM individually were compared to the efficacy of Blend 41 and DM combined. […]

American cockroaches [2] = experiment: Treated jar test, knockdown and mortality time: Blend 41, deltamethrin, combination; format: in vivo, American cockroach; conditions: average of 3 replicates, 5 roaches each
Procedure: To test efficacy of the composition, a small amount of each test chemical is introduced to a separate jar. About 3 to 5 American cockroaches are introduced to each jar at different time intervals. Mortality and/or immobilization (knockdown, KD) data is recorded and compared. Such data is recorded as seconds (s) following introduction of the insect to the treated jar. The resulting data is contained in the following table.
The data is the average of 3 replicates, 5 roaches in each replicate.

German Cockroach = experiment: Bioactivity of Blend 13, deltamethrin and combination; format: in vivo
Drosophila S2 cells = experiment: cAMP response in cells treated with Blend 41, imidacloprid and combinations; format: cell-based
Source text: FIG. 23 is a bar graph showing percent knockdown in response to treatment of Aedes aegypti with various compositions of including Blend 41 alone, Imidacloprid alone, and combinations of Blend 41 and Imidacloprid. FIG. 24 is a bar graph showing percent knockdown in response to treatment of Aedes aegypti with various compositions of including Blend 41 alone, Imidacloprid alone, and combinations of Blend 41 and Imidacloprid. FIG. 25 is a bar graph showing cAMP signal produced in response to treatment of Drosophila S2 cells treated with various compositions of including Blend 41 alone, Imidacloprid alone, and combinations of Blend 41 and Imidacloprid.

American cockroaches [3] = experiment: Residual activity of stabilized compositions, separate jar per time period; format: in vivo, American cockroach; conditions: tested about 48 hours after application; separate jar per time point
Procedure: In studies where treatment jars are reused at various time intervals, as described in Example 19, the materials in the jars are lost after each exposure due to contact with and transfer to the insect body, rather than via loss due to volatility of the material. As such, additional studies are conducted wherein a separate jar is prepared for each time period.
A solution of 5% thyme crystal (TC) is prepared in acetone and about 2 ml of the solution is applied to the bottom of five separate glass jars, one for each time point at which mortality is assessed. About 2 ml of six compositions (R1-R6), set forth above in Table 19-A, are each applied to the bottom of five separate jars. Thyme Crystals (5%, by weight) are combined with the six compositions (R1-R6) to produce six formulations. About 2 ml of each formulation is applied to five separate jars.
[…] Mortality is recorded about 24 hours after exposure. […] Mortality is recorded about 24 hours after each exposure.

American cockroaches [4] = experiment: Residual activity of stabilized compositions, treated jars reused, mortality 24 hours after exposure; format: in vivo, American cockroach; conditions: tested about 48 hours after application
Procedure: A solution of 5% thyme crystals (TC) is prepared in acetone and about 2 ml of the solution is applied to the bottom of a glass jar. About 2 ml of six compositions (R1-R6), set forth in Table 19-A, are each applied to the bottom of a separate jar. Thyme Crystals (5%, by weight) are combined with the six compositions (R1-R6) to produce six formulations. About 2 ml of each formulation is applied to a separate jar.
[…] Mortality is recorded about 24 hours after exposure. All jars are kept under room temperature and reused at subsequent time points to evaluate residual activity. […] Mortality is recorded about 24 hours after each exposure.

C=C(C)[C@H]1CC=C(C)CC1 [D-Limonene]
Percent of Tested Insects > 1 hr Time to Death (male German Cockroach; component at 83%, diluted with acetone): 25% | Percent of Tested Insects > 1 hr Time to Death (male German Cockroach; component of Blend 31 diluted with acetone, concentration not given): 22.5%

CCCCCCCCCCCCCC(=O)OC(C)C [Isopropyl myristate, propan-2-yl tetradecanoate]
Percent of Tested Insects > 1 hr Time to Death (male German Cockroach; component at 40%, diluted with acetone): 100%

CN/C(=N\[N+](=O)[O-])NCc1cnc(Cl)s1 [clothianidin]
Ca2+ release, single agent alone [1]: increase in Ca^2+ release

CC1(C)[C@H](C(=O)O[C@H](C#N)c2cccc(Oc3ccccc3)c2)[C@@H]1C=C(Br)Br [deltamethrin]
100% Kill (American cockroaches [2]; time to 100% kill in treated jar): 12 min | KD (American cockroaches [2]; time to knockdown in treated jar): 140 s | Bioactivity 100% Kill (German Cockroach): 15 min | Bioactivity KD (German Cockroach): 120 s

O=[N+]([O-])NC1=NCCN1Cc1ccc(Cl)nc1 [imidacloprid]
cAMP (Drosophila S2 cells; 100 PPM): 9.1 nM | cAMP (Drosophila S2 cells; 333 PPM): 9.4 nM | cAMP (Drosophila S2 cells; 500 PPM): 8.8 nM

Cc1ccc(C(C)C)c(O)c1 [thyme crystal]
residual activity (American cockroaches [3]): does not have residual activity | residual activity (American cockroaches [4]): does not have residual activity
